# Laboratory results taken from PMC3702004, “Comparison of Intake and Systemic Relative Effect Potencies of Dioxin-like Compounds in Female Mice after a Single Oral Dose” (Environmental Health Perspectives, 2013).
# Where two headings read alike, the source gives them in different places.
# Experiments:
# [1] = Compound analysis: liver, adipose and plasma concentrations 3 days after a single oral dose; format: in vivo, female C57BL/6 mice; settings: for Liver:adipose ratio: based on ng/g tissue, day 3; for concentration at 3 days: female, C57BL/6, mouse, in vivo, po
# [2] = Body and organ weight, hepatic lipid content; format: in vivo, female C57BL/6 mice; settings: day 3; for % lipid / g liver: pooled liver samples
# [3] = toxic equivalency factor relative to TCDD; ref Van den Berg et al. 2006; cited from earlier work
# [4] = oral dose 0.5 µg/kg bw, 3 days after single oral dose
# [5] = oral dose 2.5 µg/kg bw, 3 days after single oral dose
# [6] = oral dose 10 µg/kg bw, 3 days after single oral dose
# [7] = oral dose 25 µg/kg bw, 3 days after single oral dose
# [8] = oral dose 100 µg/kg bw, 3 days after single oral dose
compound,measurement,setting,value
"Clc1cc2c(cc1Cl)Oc1c(cc(Cl)c(Cl)c1Cl)O2 [PeCDD, 1,2,3,7,8-pentachlorodibenzodioxin]",liver:adipose ratio (hepatic sequestration criterion 0.3),"[1]; 3 days after single oral dose, Table 1 doses",> 0.3
same,Liver:adipose ratio,[1]; dose 0.5 μg/kg BW,4.4±0.9
same,Liver:adipose ratio,[1]; dose 2.5 μg/kg BW,7.0±1.1
same,Liver:adipose ratio,[1]; dose 10 μg/kg BW,6.7±1.4
same,concentration at 3 days,"[1]; 0.5 µg/kg bw, oral dose 0.5 µg/kg bw, 3 days after single oral dose, read-out: Adipose concentration",0.9 ± 0.2 ng/g
same,concentration at 3 days,"[1]; 0.5 µg/kg bw, oral dose 0.5 µg/kg bw, 3 days after single oral dose, read-out: Liver concentration",4 ± 0.7 ng/g
same,concentration at 3 days,"[1]; 2.5 µg/kg bw, oral dose 2.5 µg/kg bw, 3 days after single oral dose, read-out: Adipose concentration",3.8 ± 0.7 ng/g
same,concentration at 3 days,"[1]; 2.5 µg/kg bw, oral dose 2.5 µg/kg bw, 3 days after single oral dose, read-out: Liver concentration",27 ± 6 ng/g
same,concentration at 3 days,"[1]; 10 µg/kg bw, oral dose 10 µg/kg bw, 3 days after single oral dose, read-out: Adipose concentration",16 ± 5 ng/g
same,concentration at 3 days,"[1]; 10 µg/kg bw, oral dose 10 µg/kg bw, 3 days after single oral dose, read-out: Liver concentration",103 ± 23 ng/g
same,concentration at 3 days,"[1]; 10 µg/kg bw, oral dose 10 µg/kg bw, 3 days after single oral dose, read-out: Plasma concentration",0.032 ng/g
same,concentration at 3 days,"[1]; 25 µg/kg bw, oral dose 25 µg/kg bw, 3 days after single oral dose, read-out: Plasma concentration",0.052 ng/g
same,concentration at 3 days,"[1]; 100 µg/kg bw, oral dose 100 µg/kg bw, 3 days after single oral dose, read-out: Plasma concentration",0.298 ng/g
same,Adipose % dose / g tissue,[1]; [4],9.3 % dose / g tissue
same,Adipose concentration,[1]; [4],1.1 ± 0.2 ng/g lipid
same,Liver % dose / g tissue,[1]; [4],40 % dose / g tissue
same,Liver concentration,[1]; [4],85 ± 14 ng/g lipid
same,Plasma % dose / g tissue,[1]; [4],0.037 % dose / g tissue
same,Adipose % dose / g tissue,[1]; [5],7.7 % dose / g tissue
same,Adipose concentration,[1]; [5],4.3 ± 0.8 ng/g lipid
same,Liver % dose / g tissue,[1]; [5],54 % dose / g tissue
same,Liver concentration,[1]; [5],446 ± 96 ng/g lipid
same,Plasma % dose / g tissue,[1]; [5],0.024 % dose / g tissue
same,Adipose % dose / g tissue,[1]; [6],8.0 % dose / g tissue
same,Adipose concentration,[1]; [6],19 ± 6 ng/g lipid
same,Liver % dose / g tissue,[1]; [6],51 % dose / g tissue
same,Liver concentration,[1]; [6],1669 ± 378 ng/g lipid
same,Plasma % dose / g tissue,[1]; [6],0.016 % dose / g tissue
same,Plasma concentration,[1]; [6],19 ± 7 ng/g lipid
same,Plasma % dose / g tissue,[1]; [7],0.010 % dose / g tissue
same,Plasma concentration,[1]; [7],30 ± 2 ng/g lipid
same,Plasma % dose / g tissue,[1]; [8],0.015 % dose / g tissue
same,Plasma concentration,[1]; [8],157 ± 21 ng/g lipid
same,Body weight,[2]; oral dose 0.5 µg/kg bw,18.6 ± 1.3 gram
same,Liver weight,[2]; oral dose 0.5 µg/kg bw,4.56 ± 0.34 % of bw
same,Spleen weight,[2]; oral dose 0.5 µg/kg bw,0.30 ± 0.02 % of bw
same,Thymus weight,[2]; oral dose 0.5 µg/kg bw,0.21 ± 0.03 % of bw
same,% lipid / g liver,[2]; oral dose 0.5 µg/kg bw,4.7%
same,Body weight,[2]; oral dose 2.5 µg/kg bw,19.4 ± 1.1 gram
same,Liver weight,[2]; oral dose 2.5 µg/kg bw,5.02 ± 0.26 % of bw
same,Spleen weight,[2]; oral dose 2.5 µg/kg bw,0.31 ± 0.03 % of bw
same,Thymus weight,[2]; oral dose 2.5 µg/kg bw,0.29 ± 0.04 % of bw
same,% lipid / g liver,[2]; oral dose 2.5 µg/kg bw,6.0%
same,Body weight,[2]; oral dose 10 µg/kg bw,18.9 ± 1.2 gram
same,Liver weight,[2]; oral dose 10 µg/kg bw,5.32 ± 0.43 % of bw
same,Spleen weight,[2]; oral dose 10 µg/kg bw,0.32 ± 0.04 % of bw
same,Thymus weight,[2]; oral dose 10 µg/kg bw,0.23 ± 0.06 % of bw
same,% lipid / g liver,[2]; oral dose 10 µg/kg bw,6.2%
same,Body weight,[2]; oral dose 25 µg/kg bw,19.4 ± 1.5 gram
same,Liver weight,[2]; oral dose 25 µg/kg bw,5.26 ± 0.27 % of bw
same,Spleen weight,[2]; oral dose 25 µg/kg bw,0.32 ± 0.04 % of bw
same,Thymus weight,[2]; oral dose 25 µg/kg bw,0.26 ± 0.05 % of bw
same,Body weight,[2]; oral dose 100 µg/kg bw,18.8 ± 1.1 gram
same,Liver weight,[2]; oral dose 100 µg/kg bw,5.83 ± 0.50 % of bw
same,Spleen weight,[2]; oral dose 100 µg/kg bw,0.33 ± 0.04 % of bw
same,Thymus weight,[2]; oral dose 100 µg/kg bw,0.24 ± 0.05 % of bw
same,Dose with significant increase in liver weight vs vehicle controls,[2]; single oral dose,≥ 100 µg/kg BW
same,WHO-TEF,[3],1
